Reference: patent publication US20080200567A1, “IN VIVO SCREENING MODELS FOR TREATMENT OF ALZHEIMER'S DISEASE AND OTHER QPCT-RELATED DISORDERS” (PROBIODRUG AG, priority 2007, published 2008)

Assays:
mammalian QC = conditions: Busby et al. 1987 and later reports; cited from earlier work
human QC = biological target: T1, human QC (Homo sapiens, UniProt Q16769); experiment: QC inhibition by chelators (inhibitor assay); format: biochemical; conditions: human QC and other animal QCs
T1 construct: The cDNA of the mature QC starting with codon 38 was fused in frame with the plasmid encoded 6× histidine tag; 6x histidine; made in house; host or cells: Pichia pastoris X33 (pPICZαB) or E. coli M15 (pQE-31)
T1 sequence (Q16769 29-361): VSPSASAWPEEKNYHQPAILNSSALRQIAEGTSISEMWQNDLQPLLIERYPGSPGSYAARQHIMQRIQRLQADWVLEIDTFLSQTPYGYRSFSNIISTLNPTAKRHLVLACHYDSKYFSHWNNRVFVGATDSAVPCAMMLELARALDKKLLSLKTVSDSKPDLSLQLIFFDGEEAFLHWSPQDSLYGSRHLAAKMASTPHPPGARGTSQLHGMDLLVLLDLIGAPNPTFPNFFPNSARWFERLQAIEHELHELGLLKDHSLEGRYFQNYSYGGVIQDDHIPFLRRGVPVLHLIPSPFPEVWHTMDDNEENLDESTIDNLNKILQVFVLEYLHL
Description: QC activity was evaluated fluorometrically using H-Gln-βNA. The samples consisted of 0.2 mM fluorogenic substrate, 0.25 U pyroglutamyl aminopeptidase (Unizyme, Horsholm, Denmark) in 0.2 M Tris/HCl, pH 8.0 containing 20 mM EDTA and an appropriately diluted aliquot of QC in a final volume of 250 μl. Excitation/emission wavelengths were 320/410 nm. The assay reactions were initiated by addition of glutaminyl cyclase. QC activity was determined from a standard curve of β-naphthylamine under assay conditions.
Reactions were carried out at 30° C. utilizing the NOVOStar reader for microplates (BMG labtechnologies). The samples consisted of varying concentrations of the fluorogenic substrate, 0.1 U pyroglutamyl aminopeptidase (Qiagen) in 0.05 M Tris/HCl, pH 8.0 containing 5 mM EDTA and an appropriately diluted aliquot of QC in a final volume of 250 μl. Excitation/emission wavelengths were 380/460 nm. The assay reactions were initiated by addition of glutaminyl cyclase. QC activity was determined from a standard curve of 7-amino-4-methylcoumarin under assay conditions. The kinetic data were evaluated using GraFit software.
This novel assay was used to determine the kinetic parameters for most of the QC substrates.
The initial velocities were evaluated and the enzymatic activity was determined from a standard curve of ammonia under assay conditions. All samples were measured at 30° C., using either the […]uor Plus or the Sunrise (both from TECAN) reader for microplates. Kinetic data was evaluated using GraFit software.
For inhibitor testing, the sample composition was the same as described above, except for the putative inhibitory compound added. For a rapid test of QC-inhibition, samples contained 4 mM of the respective inhibitor and a substrate concentration at 1 KM. For detailed investigations of the inhibition and determination of Ki-values, influence of the inhibitor on the auxiliary enzymes was investigated first. […] The inhibitory constant was evaluated by fitting the set of progress curves to the general equation for competitive inhibition using GraFit software.

[1] = Nonenzymatic turnover (cyclization) of model substrates; format: physicochemical; conditions: without enzyme
QC = experiment: pH-dependence of the QC catalyzed conversion of Glu-βNA; format: biochemical
[2] = cited from earlier work

Compound | Inhibition of a mammalian QC (mammalian QC) | inhibition characteristics of QC by chelators (human QC) | further results
reduced 6-methylpterin | detected |  | 
Oc1cccc2cccnc12 [8-hydroxy-quinoline] |  | inhibition | 
N[C@@H](CCC(=O)O)C(=O)Nc1ccc2ccccc2c1 [Glu-βNA] |  |  | nonenzymatic turnover [1]: negligible; kinetically determined pKa-value (QC): 7.55+/−0.02; pH-optimum of catalysis (QC): ~6.0
NC(=O)CC[C@H](N)C(=O)Nc1ccc2ccccc2c1 [Gln-NA, Glutaminyl-beta-naphthylamine] |  |  | nonenzymatic turnover [1]: negligible
O=C(O)CN(CCN(CC(=O)O)CC(=O)O)CC(=O)O [EDTA] | did not inhibit |  | 
O=C(O)c1cccc(C(=O)O)n1 [dipicolinic acid] |  | inhibition | 
N[C@@H](CCC(=O)O)C(=O)O [Glutamate] |  |  | pKa-value for the α-amino moiety [2]: ~7.5; pKa-value for the γ-carboxylic moiety [2]: about 4.2
c1cnc2c(c1)ccc1cccnc12 [1,10-phenanthroline] | detected | inhibition | 
